Measured values published in article PMC8869629, “Comparison of Various Solvent Extracts and Major Bioactive Components from Portulaca oleracea for Antioxidant, Anti-Tyrosinase, and Anti-α-Glucosidase Activities” (Antioxidants, 2022).
Values after ≈ are worked out from the molar mass of the structure shown.

Legend:
[1] = DPPH radical scavenging assay; assay type: biochemical; conditions: mean ± SD (n = 3)
Description: The DPPH radical scavenging assay was determined by the reference method.

α-glucosidase = α-glucosidase (Saccharomyces cerevisiae, UniProt P53341); experiment: biochemical
Chain of α-glucosidase (P53341 whole entry): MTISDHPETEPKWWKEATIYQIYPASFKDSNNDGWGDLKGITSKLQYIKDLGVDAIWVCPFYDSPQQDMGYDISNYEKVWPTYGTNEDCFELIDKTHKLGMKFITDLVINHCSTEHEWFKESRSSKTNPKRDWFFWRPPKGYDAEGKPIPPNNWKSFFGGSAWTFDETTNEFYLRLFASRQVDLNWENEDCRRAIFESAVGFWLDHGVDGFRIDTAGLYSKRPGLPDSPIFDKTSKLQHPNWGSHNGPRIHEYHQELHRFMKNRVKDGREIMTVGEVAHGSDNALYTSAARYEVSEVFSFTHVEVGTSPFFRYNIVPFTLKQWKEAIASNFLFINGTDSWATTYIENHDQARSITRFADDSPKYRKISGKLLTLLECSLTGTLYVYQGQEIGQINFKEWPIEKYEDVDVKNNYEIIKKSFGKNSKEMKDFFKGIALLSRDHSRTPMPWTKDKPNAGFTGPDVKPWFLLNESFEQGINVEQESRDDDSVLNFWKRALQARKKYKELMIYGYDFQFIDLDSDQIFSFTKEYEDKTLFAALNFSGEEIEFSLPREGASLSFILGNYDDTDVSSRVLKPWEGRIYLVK
Description: α-Glucosidase inhibitory activity was established in accordance with the described method with slight modifications. In brief, 100 μL of different concentrations of the sample, 380 μL of p-nitro-phenyl-α-D-glucopyranoside (p-NPG) (0.53 mM), and 20 μL of α-Glucosidase solution (1 units/mL) were mixed in 0.1 M potassium phosphate buffer (pH 6.8). After incubating at 37 °C for 20 min, 500 μL of sodium carbonate (0.1 M) was added in order to quench the reaction. The anti-α-glucosidase activity of the sample was determined by calculating the decrease in absorbance measured at 405 nm by the following equation,
Inhibition (%) = (A0 − A1)/A0 × 100, where A1 is the absorbance of the test sample and A0 is the absorbance of the control.

[2] = ABTS cation radical scavenging assay; assay type: biochemical; conditions: mean ± SD (n = 3)
Description: The ABTS cation radical scavenging assay was carried out using the reference method.

[3] = Hydroxyl radical scavenging assay; assay type: biochemical; conditions: mean ± SD (n = 3)
Description: The samples were evaluated for hydroxyl radical scavenging activity based on the previously described method.

[4] = Superoxide anion radical scavenging assay (PMS-NADH-NBT); assay type: biochemical; conditions: isolated components (Table 5); mean ± SD (n = 3)
Description: Superoxide anion radical (O2^•−) scavenging activity was described earlier with slight changes. […] The reaction was initiated by adding 50 μL of NADH (468 μM) solution to the mixture. After incubating at room temperature for 5 min, the activity of samples was determined by calculating the decrease in absorbance measured at 560 nm by the following equation,
Superoxide anion radical scavenging activity (%) = (A0 − A1)/A0 × 100, where A1 is the absorbance of the test sample and A0 is the absorbance of the control.
IC50 values for the tested activities were determined by linear regression of the percentage of remaining superoxide anion radicals against sample concentration.

IC50 DPPH ([1]; isolated components (Table 5)) [µg/mL] | IC50 ABTS ([2]; isolated components (Table 5)) [µg/mL] | IC50 Hydroxyl ([3]; isolated components (Table 5)) [µg/mL] | IC50 DPPH ([1]; solvent extracts (Table 2)) [µg/mL] | IC50 ABTS ([2]; solvent extracts (Table 2)) [µg/mL] | IC50 Hydroxyl ([3]; solvent extracts (Table 2)) [µg/mL] | SMILES | IC50 (α-glucosidase) [µM] | IC50 Superoxide [4] [µg/mL]
3.81 ± 0.18 (≈ 19.6 µM) | 24.47 ± 16.45 (≈ 126 µM) | 68.26 ± 65.58 (≈ 352 µM) |  |  |  | COc1cc(/C=C/C(=O)O)ccc1O [trans-Ferulic acid, trans-ferulic acid] | > 2060 | 541.00 ± 26.95 (≈ 2790 µM)
1.07 ± 0.13 (≈ 3.54 µM) | 11.46 ± 1.82 (≈ 37.9 µM) | 9.75 ± 4.39 (≈ 32.3 µM) |  |  |  | O=c1c(O)c(-c2ccc(O)c(O)c2)oc2cc(O)cc(O)c12 [Quercetin, quercetin] |  | 44.08 ± 3.07 (≈ 146 µM)
2.32 ± 0.17 (≈ 8.11 µM) | 8.75 ± 0.90 (≈ 30.6 µM) | 11.46 ± 5.60 (≈ 40 µM) |  |  |  | O=c1c(O)c(-c2ccc(O)cc2)oc2cc(O)cc(O)c12 [Kaempferol, kaempferol] |  | 541.00 ± 18.47 (≈ 1890 µM)
31.04 ± 2.12 (≈ 141 µM) | 19.34 ± 2.18 (≈ 87.8 µM) | 58.62 ± 2.75 (≈ 266 µM) | 39.88 ± 1.30 (≈ 181 µM) | 20.34 ± 1.69 (≈ 92.3 µM) | 65.90 ± 1.23 (≈ 299 µM) | Cc1cc(C(C)(C)C)c(O)c(C(C)(C)C)c1 [BHT, Butylated hydroxytoluene, reference compound] |  | 

SMILES | IC50 DPPH ([1]; isolated components (Table 5)) [µg/mL] | IC50 ABTS ([2]; isolated components (Table 5)) [µg/mL] | IC50 Hydroxyl ([3]; isolated components (Table 5)) [µg/mL] | IC50 DPPH ([1]; solvent extracts (Table 2)) [µg/mL] | IC50 ABTS ([2]; solvent extracts (Table 2)) [µg/mL] | IC50 Hydroxyl ([3]; solvent extracts (Table 2)) [µg/mL] | IC50 (α-glucosidase) [µM] | IC50 Superoxide [4] [µg/mL]
O=C(/C=C/c1ccc(O)c(O)c1)O[C@H](Cc1ccc(O)c(O)c1)C(=O)O [Rosmarinic acid, rosmarinic acid] | 1.87 ± 0.09 (≈ 5.19 µM) | 27.11 ± 14.00 (≈ 75.2 µM) | 6.56 ± 4.77 (≈ 18.2 µM) |  |  |  | 514 | 61.62 ± 6.43 (≈ 171 µM)
O=C(O)/C=C/c1ccc(O)cc1 [p-Coumaric acid, p-coumaric acid] | 204.13 ± 9.78 (≈ 1240 µM) | 27.01 ± 6.12 (≈ 165 µM) | 60.70 ± 69.24 (≈ 370 µM) |  |  |  | > 2440 | 256.00 ± 16.27 (≈ 1560 µM)
O=C(O)/C=C/c1ccc(O)c(O)c1 [Caffeic acid, caffeic acid] | 0.81 ± 0.09 (≈ 4.5 µM) | 27.85 ± 18.95 (≈ 155 µM) | 153.04 ± 85.84 (≈ 849 µM) |  |  |  | 942 | 57.34 ± 7.44 (≈ 318 µM)
